According to PubChem BioAssay AID1963428 (Molecular Pharmacology Branch, DTP, NCI, 2024):

Tested on: 171881-019-R-J1-PDC complex spheroid growth, % test/control
Assay: Anticancer human tumor 171881-019-R-J1-PDC patient-derived invasive breast carcinoma cell line growth inhibition [Asc]
Details: for IC50: curve of first compound; for viability, T/C: stronger effect = lower value
Procedure, shortened: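 Tumor cells were grown as complex spheroids with human endothelial cells (HUVEC) and human mesenchymal stem cells as stroma. Agents were tested alone and in combination, in half-log steps down from the clinical Cmax, or from 10 microM where Cmax was unknown.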

[1] = second compound 0.01 µM, first compound 0.00949 µM
[2] = second compound 0.01 µM, first compound 0.03 µM
[3] = second compound 0.01 µM, first compound 0.0949 µM
[4] = second compound 0.01 µM, first compound 0.3 µM
[5] = second compound 0.01 µM, first compound 0.949 µM
[6] = second compound 0.01 µM, first compound 3 µM
[7] = second compound 0.0316 µM, first compound 0.00949 µM
[8] = second compound 0.0316 µM, first compound 0.03 µM
[9] = second compound 0.0316 µM, first compound 0.0949 µM
[10] = second compound 0.0316 µM, first compound 0.3 µM
[11] = second compound 0.0316 µM, first compound 0.949 µM
[12] = second compound 0.0316 µM, first compound 3 µM
[13] = second compound 0.1 µM, first compound 0.00949 µM
[14] = second compound 0.1 µM, first compound 0.03 µM
[15] = second compound 0.1 µM, first compound 0.0949 µM
[16] = second compound 0.1 µM, first compound 0.3 µM
[17] = second compound 0.1 µM, first compound 0.949 µM
[18] = second compound 0.1 µM, first compound 3 µM
[19] = second compound 0.316 µM, first compound 0.00949 µM
[20] = second compound 0.316 µM, first compound 0.03 µM
[21] = second compound 0.316 µM, first compound 0.0949 µM
[22] = second compound 0.316 µM, first compound 0.3 µM
[23] = second compound 0.316 µM, first compound 0.949 µM
[24] = second compound 0.316 µM, first compound 3 µM
[25] = second compound 1 µM, first compound 0.00949 µM
[26] = second compound 1 µM, first compound 0.03 µM
[27] = second compound 1 µM, first compound 0.0949 µM
[28] = second compound 1 µM, first compound 0.3 µM
[29] = second compound 1 µM, first compound 0.949 µM
[30] = second compound 1 µM, first compound 3 µM
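For viability, T/C in this document: spheroids exposed to compounds for 7 days.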

For `CCN1C(C(=O)NC23CCC(C(=O)O)(CC2)CC3)C(c2cccc(Cl)c2F)C2(C(=O)Nc3cc(Cl)ccc32)C12CCCCC2` (stereo not given) + CNC(C)C(=O)NC1CN(S(=O)(=O)c2cccc(S(=O)(=O)N3CCC4CCC(C(=O)NC(c5ccccc5)c5ccccc5)N4C(=O)C(NC(=O)C(C)NC)C3)c2)CCC2CCC(C(=O)NC(c3ccccc3)c3ccccc3)N2C1=O, which IC50 (second compound 0.01 µM) is on record?
Its IC50 is over 3 µM.

What about the IC50 (second compound 0.0316 µM) of the same compound?
Its IC50 is over 3 µM.

What about the IC50 (second compound 0.1 µM) of the same compound?
Its IC50 is over 3 µM.

What about the IC50 (second compound 0.316 µM) of the same compound?
Its IC50 is over 3 µM.

And the IC50 (second compound 1 µM)?
The IC50 was over 3 µM.

What about the viability, T/C [1] of the same compound?
Its viability, T/C is 91%.

And the viability, T/C [2]?
The viability, T/C was 108%.

What about the viability, T/C [3] of the same compound?
Its viability, T/C is 117%.

What about the viability, T/C [4] of the same compound?
Its viability, T/C is 109%.

And the viability, T/C [5]?
The viability, T/C was 110%.

What about the viability, T/C [6] of the same compound?
The viability, T/C was 138%.

And the viability, T/C [7]?
The viability, T/C was 109%.

What about the viability, T/C [8] of the same compound?
The viability, T/C was 118%.

And the viability, T/C [9]?
Its viability, T/C is 104%.

And the viability, T/C [10]?
Its viability, T/C is 112%.

What about the viability, T/C [11] of the same compound?
Its viability, T/C is 105%.

What about the viability, T/C [12] of the same compound?
Its viability, T/C is 138%.

And the viability, T/C [13]?
The viability, T/C was 130%.

What about the viability, T/C [14] of the same compound?
Its viability, T/C is 117%.

What about the viability, T/C [15] of the same compound?
Its viability, T/C is 104%.

What about the viability, T/C [16] of the same compound?
The viability, T/C was 111%.

What about the viability, T/C [17] of the same compound?
Its viability, T/C is 117%.

And the viability, T/C [18]?
The viability, T/C was 132%.

What about the viability, T/C [19] of the same compound?
The viability, T/C was 110%.

What about the viability, T/C [20] of the same compound?
Its viability, T/C is 120%.

What about the viability, T/C [21] of the same compound?
The viability, T/C was 91.2%.

What about the viability, T/C [22] of the same compound?
The viability, T/C was 123%.

And the viability, T/C [23]?
Its viability, T/C is 99%.

And the viability, T/C [24]?
Its viability, T/C is 132%.

And the viability, T/C [25]?
The viability, T/C was 102%.

What about the viability, T/C [26] of the same compound?
Its viability, T/C is 110%.

What about the viability, T/C [27] of the same compound?
Its viability, T/C is 112%.

And the viability, T/C [28]?
Its viability, T/C is 101%.

And the viability, T/C [29]?
The viability, T/C was 121%.

And the viability, T/C [30]?
The viability, T/C was 132%.

What does the source list for `Cc1nc(N2CCC3(CC2)COC(C)C3N)c(CO)nc1Sc1ccnc(N)c1Cl` (stereo not given) + CNC(C)C(=O)NC1CN(S(=O)(=O)c2cccc(S(=O)(=O)N3CCC4CCC(C(=O)NC(c5ccccc5)c5ccccc5)N4C(=O)C(NC(=O)C(C)NC)C3)c2)CCC2CCC(C(=O)NC(c3ccccc3)c3ccccc3)N2C1=O?
IC50 (second compound 0.01 µM): > 3 µM; IC50 (second compound 0.0316 µM): > 3 µM; IC50 (second compound 0.1 µM): > 3 µM; IC50 (second compound 0.316 µM): > 3 µM; IC50 (second compound 1 µM): > 3 µM; viability, T/C [1]: 119%; viability, T/C [2]: 132%; viability, T/C [3]: 192%; viability, T/C [4]: 239%; viability, T/C [5]: 205%; viability, T/C [6]: 165%; viability, T/C [7]: 116%; viability, T/C [8]: 163%; viability, T/C [9]: 214%; viability, T/C [10]: 279%; viability, T/C [11]: 211%; viability, T/C [12]: 164%; viability, T/C [13]: 120%; viability, T/C [14]: 147%; viability, T/C [15]: 196%; viability, T/C [16]: 237%; viability, T/C [17]: 175%; viability, T/C [18]: 155%; viability, T/C [19]: 111%; viability, T/C [20]: 140%; viability, T/C [21]: 203%; viability, T/C [22]: 229%; viability, T/C [23]: 181%; viability, T/C [24]: 147%; viability, T/C [25]: 119%; viability, T/C [26]: 148%; viability, T/C [27]: 183%; viability, T/C [28]: 250%; viability, T/C [29]: 171%; viability, T/C [30]: 142%
